Literature values in patent US20260014099A1, “SELF-PRESERVING TOPICAL PHARMACEUTICAL COMPOSITIONS COMPRISING DIETHYLENE GLYCOL MONOETHYL ETHER” (priority 2022, published 2026).

| Compound | Water Solubility |
| --- | --- |
| NC(N)=O [urea] | 1,190,000 mg/liter |
| ivermectin | 4 mg/L |
